In US5652262A, “Hydroxamic acid derivatives as metalloproteinase inhibitors” (British Biotech Pharmaceutical, Ltd., priority 1993, dated 1997):

Assays:
collagenase = molecular target: T1, collagenase (Homo sapiens, UniProt P03956); experiment: Inhibition of collagenase (procedure of Cawston and Barrett, acetylated 14C collagen); assay type: biochemical; conditions: 37°, 16 hours, pH 7.5
T1 sequence (P03956 100-469): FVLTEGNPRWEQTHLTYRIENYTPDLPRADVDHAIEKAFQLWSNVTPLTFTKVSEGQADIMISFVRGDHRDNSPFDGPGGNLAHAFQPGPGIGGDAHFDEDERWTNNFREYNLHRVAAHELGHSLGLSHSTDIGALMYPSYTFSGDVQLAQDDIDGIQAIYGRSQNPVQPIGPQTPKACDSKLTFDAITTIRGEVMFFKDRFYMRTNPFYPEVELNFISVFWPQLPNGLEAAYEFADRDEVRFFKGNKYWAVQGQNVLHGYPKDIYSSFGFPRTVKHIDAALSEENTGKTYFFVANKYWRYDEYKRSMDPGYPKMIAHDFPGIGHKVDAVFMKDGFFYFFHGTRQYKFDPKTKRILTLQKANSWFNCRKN
Protocol: The potency of compounds of the invention as inhibitors of collagenase was determined by the procedure of Cawston and Barrett, (Anal. Biochem., 99, 340-345, 1979), hereby incorporated by reference, whereby a 1 mM solution of the compound being tested, or a dilution thereof, was incubated at 37° for 16 hours with collagen and collagenase (buffered with 25 mM Hepes, pH 7.5 containing 5 mM CaCl2, 0.05% Brij 35 and 0.02% NaN3). The collagen was acetylated ^14 C collagen prepared by the method of Cawston and Murphy, (Methods in Enzymology, 80, 711, 1981), hereby incorporated by reference. The samples were centrifuged to sediment undigested collagen, and an aliquot of the radioactive supernatant removed for assay on a scintillation counter as a measure of hydrolysis.

stromelysin = stromelysin (Homo sapiens, UniProt P08254); experiment: Inhibition of stromelysin (procedure of Cawston et al, acetylated 14C casein); assay type: biochemical; conditions: 37°, 16 hours, pH 7.5
Sequence of stromelysin (P08254 100-477): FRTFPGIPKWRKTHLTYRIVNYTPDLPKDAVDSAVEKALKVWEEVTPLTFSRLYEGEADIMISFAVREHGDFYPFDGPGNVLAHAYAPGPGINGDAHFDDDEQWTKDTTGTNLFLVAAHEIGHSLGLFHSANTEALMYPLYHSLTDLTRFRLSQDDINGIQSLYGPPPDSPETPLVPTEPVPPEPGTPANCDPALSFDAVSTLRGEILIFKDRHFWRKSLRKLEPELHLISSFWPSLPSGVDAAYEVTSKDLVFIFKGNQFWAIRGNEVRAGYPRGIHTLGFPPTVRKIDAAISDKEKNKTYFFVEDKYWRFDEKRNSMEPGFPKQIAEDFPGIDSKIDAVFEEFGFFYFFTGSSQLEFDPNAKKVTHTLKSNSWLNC
Protocol: The potency of compounds of the invention as inhibitors of stromelysin was determined by the procedure of Cawston et al, (Biochem. J., 195, 159-165, 1981), hereby incorporated by reference, whereby a 1 mM solution of the compound being tested, or a dilution thereof, was incubated at 37° for 16 hours with stromelysin and ^14 C acetylate casein (buffered with 25 mM Hepes, pH 7.5 containing 5 mM CaCl2, 0.05% Brij 35 and 0.02% NaN3). The casein was acetylated ^14 C casein prepared by the method of Cawston et al (ibid).

[1] = Systemic blood concentration of inhibitor over 24 hours after oral dosing in rats, by collagenase inhibitory activity of blood extracts; assay type: in vivo, rat; conditions: 10 mg/kg in PBS/0.1% Tween 80 by gavage, male rats, 0.5-24 hours, drug plus any active metabolites, collagenase assay
Protocol: The biological efficacy of a compound of the invention in chronic disease states is a function of the systemic blood concentration maintained over time, and its intrinsic potency. These factors can be quantified as IC50.hrs (24 hrs), which parameter is defined as the total number of IC50 s in the blood over the 24 hours post dosing, the IC50 being defined as the concentration of the compound that reduces collagenase activity to 50% of its normal value.:
Test compounds were administered at 10 mg/kg in PBS/0.1% Tween 80 by gavage to 6 male rats (300 g) per treatment group. Blood samples were removed by tail venepuncture at 0.5, 1.0, 2.0, 6.0 and 24 hours post administration. 0.5 ml of blood was placed into 4.5 ml tubes containing 0.1 ml acid citrate dextrose (ACD) as anti-coagulant. For extraction, 3 ml methanol was added and the precipitated blood pelletted by centrifugation (30 min at 3000 rpm). A 2 ml aliquot of supernatant was removed and dried by lyophilisation. The extract was redissolved in 200 μl DMSO and a 10 μl aliquot assayed for collagenase inhibitory activity. The inhibitory activity in the extracts was determined using the collagenase assay described in Biological Example A above, and the concentration of inhibitor (that is drug plus any active metabolites) obtained by comparison with standard curves. […]

[2] = tested on: rat adjuvant arthritis model; experiment: Rat adjuvant arthritis model, hindpaw oedema volume; assay type: in vivo; conditions: male Lewis rats, two doses of 10 mg/kg orally each day, day 13 to day 17
Protocol: The compound of Example 1 was tested in a rat adjuvant arthritis model.
Adjuvant arthritis was produced in male Lewis rats (Charles River) by a single intradermal injection of 0.75 mg of M. butyricum in light parafin oil (Freund's complete adjuvant) into the base of the tail. The "secondary" lesion occurs after a delay of 10 days, and is characterised by inflammation of the hindpaws. Hindpaw oedema volumes were measured plethysmographically by water displacement. Animals in the treated groups received two doses of 10 mg/kg of the test compound in PBS/0.1% Tween orally, each day, from day 13 to day 17. Results are reported as paw volume change from the volume measured on day 13.

SMILES	IC50 (collagenase)	IC50 (stromelysin)	AUC (IC50.hrs (24hrs)) [1]	paw volume change, Day 17 (% relative to day 13) ([2]; Day 17)	paw volume change, Day 20 (% relative to day 13) ([2]; Day 20)
C=CC[C@H](C(=O)NO)[C@@H](CC(C)C)C(=O)N[C@@H](Cc1ccccc1)C(=O)NCc1ccccc1 [Example 7, 3R-(2-Phenyl-1S-phenylmethylcarbamoyl-ethylcarbamoyl)-5-methyl-2S-2-propenyl-hexanohydroxamic acid]	10 nM	5 nM			
C=CC[C@H](C(=O)NO)[C@@H](CC(C)C)C(=O)N[C@H](C(=O)NC)C(C)(C)C [Example 5, 3R-(2,2-Dimethyl-1S-methylcarbamoyl-propylcarbamoyl)-5-methyl-2S-2-propenyl-hexanohydroxamic acid]	3 to 4 nM	80 nM	970 IC50.hrs		
C=CC[C@H](C(=O)NO)[C@@H](CC(C)C)C(=O)N[C@@H](Cc1ccccc1)C(=O)NC [Example 1, 3R-(2-Phenyl-1S-methylcarbamoyl-ethylcarbamoyl)-5-methyl-2S-2-propenyl-hexanohydroxamic acid]	10 nM		233 IC50.hrs	52%	65%
